The text below walks through data of patent publication US20250257055A1, “TERTIARY AMIDE DERIVATIVES SUBSTITUTED WITH 4-MEMBERED RING STRUCTURE” (Sumitomo Pharma Co., Ltd., priority 2024, published 2025).

Each structure is given as a SMILES string. Like-named read-outs stand apart in the source and are kept apart here.

One data set addresses recombinant p300 (Homo sapiens (Human), UniProt Q09472). Kind of data set: HAT activity inhibition experiment (SensoLyte HAT(p300) Assay Kit). The data set is classed as biochemical. To be noted: recombinant p300, histone H3 peptide, acetyl CoA. How it is done: The HAT activity inhibitory ability of HAT inhibitors was evaluated using SensoLyte HAT(p300) Assay Kit (ANASPEC, AS-72172). Specifically, 7.5 μL of the compound of Examples […] diluted with assay buffer was added to 7.5 μL of recombinant p300 solution diluted 10 times with assay buffer, and the mixture was incubated at room temperature for 10 minutes. 7.5 μL of acetyl CoA solution diluted 10 times with assay buffer and 15 μL of histone H3 peptide diluted 10 times with assay buffer were added thereto, and the mixture was incubated at 37° C. for 30 minutes. 37.5 μL of Stop Solution was added to stop the reaction. 75 μL of p300 Developer solution diluted 50 times with assay buffer was added, and the mixture was incubated at room temperature for 30 minutes under light-shielded conditions. The fluorescence at 513 nm when irradiated with 389 nm excitation light was measured using a multiplate reader.

The next data set relates to G-401 cells. Kind of data set: Cell proliferation inhibition experiment using G-401 cells. In kind it is cell-based. To be noted: Homo sapiens, 72 h, cultured for 3 days, CellTiter-Glo. How it is done: G-401 cells (derived from malignant rhabdoid tumor) were obtained from the American Type Culture Collection (ATCC). G-401 cells were cultured in McCoy's 5A medium containing 10% fetal bovine serum and 1% penicillin/streptomycin under conditions of 37° C. and 5% CO2.
500 cells per well were seeded in a 384-well plate. One day after seeding, Examples 1 to 35 were added so that the final concentration of DMSO was 0.1%, and the cells were cultured for 3 days. After the culture was completed, the cell viability was measured using CellTiter-Glo Luminescent Cell Viability Assay (Promega, G7570).
Background: In ATP-based viability assays light output follows the ATP content of the culture.

Data set [1] is described as follows: Membrane permeability test (PAMPA). The data set is classed as in vitro ADME. How it is done:
The membrane permeability of the test compound was tested by parallel artificial membrane permeability assay (PAMPA) as follows. 200 μL of System solution (pION Inc.) containing the test compound and 4 μL of GIT Lipid-0 (pION Inc.) were added to the donor plate. 200 μL of Acceptor Sink Buffer (pION Inc.) was added to the acceptor plate. Both plates were overlapped and incubated at 37° C. for 4 hours, after which the UV of the solutions on the acceptor side and donor side was measured using a UV plate reader (190-500 nm). Compounds with poor UV absorption were measured using LC-MS. The permeability coefficient Pe (10^−6 cm/sec) of the drug was calculated using the following equation.
For orientation: PAMPA measures passive passage across an artificial lipid membrane.

A short description of data set [2]: Pharmacokinetic study in mice. In kind it is in vivo. The conditions noted are these: for AUC / clearance / half-life / Vd / Cmax: female, BALB/c (BALB/cAnN CrlCrlj), mouse, plasma; for Vd: read-out: Vdss. How it is done:
The test compound was administered to 7-week-old female BALB/c (BALB/cAnN CrlCrlj) mice intravenously (dosage: 1 mg/kg) in a 50% PEG solution (0.01 mol/L HCl) or orally (dosage: 10 mg/kg) in a 0.5% methylcellulose aqueous solution, and blood was collected at the following times:
Intravenous administration: 5 min, 15 min, 30 min, 1 hr, 2 hr, 4 hr, 6 hr, and 24 hr after administration
Oral administration: 15 min, 30 min, 1 hr, 2 hr, 4 hr, 6 hr, and 24 hr after administration
The collected blood was centrifuged at 3000 rpm×10 min using a refrigerated centrifuge set at 4° C., and the obtained plasma was measured by LC-MS. A calibration curve was prepared from the value (peak ratio) obtained by dividing the peak area of the test substance by the peak area of the internal standard substance in MS and the concentration of the plasma calibration curve sample. The concentration in the sample was calculated from the peak ratio and the calibration curve of each sample.

The mark [3] stands for this setting: pH 5.0, 37° C., read-out: pH 5.0 Pe.
[4] abbreviates: pH 7.4, 37° C., read-out: pH 7.4 Pe.

Chain of recombinant p300 (Q09472 whole entry): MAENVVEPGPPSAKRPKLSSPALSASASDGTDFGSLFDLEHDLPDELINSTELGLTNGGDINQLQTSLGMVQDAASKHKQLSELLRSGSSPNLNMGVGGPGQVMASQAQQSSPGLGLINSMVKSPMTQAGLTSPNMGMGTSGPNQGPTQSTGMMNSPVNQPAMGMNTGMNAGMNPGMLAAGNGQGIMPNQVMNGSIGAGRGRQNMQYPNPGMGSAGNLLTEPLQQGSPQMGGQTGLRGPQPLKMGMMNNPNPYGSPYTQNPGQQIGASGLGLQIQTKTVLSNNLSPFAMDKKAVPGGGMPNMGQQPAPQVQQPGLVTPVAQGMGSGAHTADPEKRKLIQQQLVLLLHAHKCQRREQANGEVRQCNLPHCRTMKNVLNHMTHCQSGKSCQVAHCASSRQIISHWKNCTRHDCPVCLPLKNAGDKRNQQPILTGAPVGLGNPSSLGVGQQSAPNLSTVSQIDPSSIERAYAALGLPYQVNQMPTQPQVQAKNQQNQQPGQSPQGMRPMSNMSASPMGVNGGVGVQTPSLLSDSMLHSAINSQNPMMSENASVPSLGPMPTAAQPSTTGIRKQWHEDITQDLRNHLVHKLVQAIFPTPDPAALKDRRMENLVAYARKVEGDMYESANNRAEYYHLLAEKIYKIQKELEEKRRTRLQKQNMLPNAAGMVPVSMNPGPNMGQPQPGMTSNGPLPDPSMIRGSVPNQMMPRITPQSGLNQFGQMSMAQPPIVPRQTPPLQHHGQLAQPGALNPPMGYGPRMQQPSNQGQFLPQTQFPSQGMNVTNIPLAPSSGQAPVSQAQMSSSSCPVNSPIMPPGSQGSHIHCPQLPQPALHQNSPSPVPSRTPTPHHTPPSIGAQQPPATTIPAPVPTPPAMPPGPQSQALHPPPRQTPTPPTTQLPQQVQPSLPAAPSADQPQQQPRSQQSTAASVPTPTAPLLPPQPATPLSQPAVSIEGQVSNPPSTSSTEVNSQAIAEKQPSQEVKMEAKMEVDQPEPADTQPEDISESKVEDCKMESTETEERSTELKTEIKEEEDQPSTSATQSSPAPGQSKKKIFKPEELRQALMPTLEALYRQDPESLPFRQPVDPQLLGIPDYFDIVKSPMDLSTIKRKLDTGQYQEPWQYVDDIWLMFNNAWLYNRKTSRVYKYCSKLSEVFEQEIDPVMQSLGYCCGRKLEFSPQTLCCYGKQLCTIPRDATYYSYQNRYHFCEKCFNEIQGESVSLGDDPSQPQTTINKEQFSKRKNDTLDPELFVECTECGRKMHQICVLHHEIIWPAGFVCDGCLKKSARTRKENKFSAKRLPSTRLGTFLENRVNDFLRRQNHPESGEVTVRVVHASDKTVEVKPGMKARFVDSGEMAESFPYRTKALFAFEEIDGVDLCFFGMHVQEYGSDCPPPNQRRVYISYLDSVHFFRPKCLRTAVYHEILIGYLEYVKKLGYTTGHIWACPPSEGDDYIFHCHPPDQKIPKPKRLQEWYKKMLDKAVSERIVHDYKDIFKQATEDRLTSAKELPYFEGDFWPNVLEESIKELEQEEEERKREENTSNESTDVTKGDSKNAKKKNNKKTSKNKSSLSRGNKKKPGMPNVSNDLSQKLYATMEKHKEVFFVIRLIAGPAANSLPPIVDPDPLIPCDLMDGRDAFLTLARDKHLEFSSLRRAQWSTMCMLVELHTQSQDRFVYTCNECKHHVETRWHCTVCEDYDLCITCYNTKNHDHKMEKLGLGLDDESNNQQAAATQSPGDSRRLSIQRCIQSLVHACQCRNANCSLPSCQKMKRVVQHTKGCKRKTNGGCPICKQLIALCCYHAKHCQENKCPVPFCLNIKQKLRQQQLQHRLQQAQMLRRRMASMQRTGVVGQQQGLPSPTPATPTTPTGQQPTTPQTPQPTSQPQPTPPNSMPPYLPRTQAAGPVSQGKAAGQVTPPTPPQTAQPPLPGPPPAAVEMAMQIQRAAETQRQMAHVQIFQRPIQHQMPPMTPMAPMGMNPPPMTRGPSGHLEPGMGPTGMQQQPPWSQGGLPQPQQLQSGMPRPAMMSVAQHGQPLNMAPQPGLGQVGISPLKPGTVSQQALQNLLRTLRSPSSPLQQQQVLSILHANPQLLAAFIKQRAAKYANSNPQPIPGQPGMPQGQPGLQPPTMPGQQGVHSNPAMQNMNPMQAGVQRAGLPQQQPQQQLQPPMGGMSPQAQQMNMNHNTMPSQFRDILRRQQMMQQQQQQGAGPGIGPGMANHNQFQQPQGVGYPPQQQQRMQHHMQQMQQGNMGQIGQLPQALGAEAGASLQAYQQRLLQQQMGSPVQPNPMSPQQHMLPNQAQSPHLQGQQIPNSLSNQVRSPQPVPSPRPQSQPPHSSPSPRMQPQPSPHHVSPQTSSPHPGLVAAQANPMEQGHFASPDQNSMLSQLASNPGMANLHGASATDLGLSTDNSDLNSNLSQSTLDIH

By IC50 is commonly meant the point on the concentration scale where inhibition reaches its midpoint. As usually defined, the AUC is concentration integrated over time. The low end stands for low exposure, the high end for high exposure. As a reminder, the clearance is a measure of how efficiently the substance is removed, as volume per time. A low value points to a low capacity for elimination. By half-life is commonly meant the time needed for the level to fall by half in the phase considered. Lower therefore signals rapid decline. The term Cmax denotes the highest concentration seen after dosing. `CN1CC(N(Cc2ccc(F)cc2)C(=O)CN2C(=O)N[C@]3(CCc4cc(-c5cnn(C)c5)ccc43)C2=O)(C(F)(F)F)C1` [Example 12, N-[(4-fluorophenyl)methyl]-2-[(1′S)-5′-(1-methyl-1H-pyrazol-4-yl)-2,5-dioxo-2′,3′-dihydrospiro[imidazolidine-4,1′-inden]-1-yl]-N-[1-methyl-3-(trifluoromethyl)azetidin-3-yl]acetamide]: the IC50 on recombinant p300 amounted to 6.3 nM. In the data set with G-401 cells, this compound came in with an IC50 of 82 nM. Further, the Papp at 4 h in data set [1] (setting [3]) was determined as 24 ×10⁻⁶ cm/s. In addition, in data set [1] (setting [4]), the Papp at 4 h came to 28.9 ×10⁻⁶ cm/s. In data set [2] (intravenous, 1 mg/kg), the AUC is 465 ng·h/mL, the clearance was found to be 35.7 mL/min/kg, the half-life is 0.97 h and the Vd came to 1.6 L/kg. In data set [2] (oral, 10 mg/kg), this compound yielded an exposure (AUC) of 1400 ng·h/mL, a Cmax of 1290 ng/mL and a BA of 30.0%.

With `O=C1N[C@]2(CCc3cc(-c4cnn(C5CN(C6COC6)C5)c4)ccc32)C(=O)N1CC(=O)N(Cc1ccc(F)cc1)C1(C(F)(F)F)COC1` [Example 1, N-[(4-fluorophenyl)methyl]-2-[(1′S)-5′-{1-[1-(oxetan-3-yl)azetidin-3-yl]-1H-pyrazol-4-yl}-2,5-dioxo-2′,3′-dihydrospiro[imidazolidine-4,1′-inden]-1-yl]-N-[3-(trifluoromethyl)oxetan-3-yl]acetamide], at recombinant p300, the IC50 is 16 nM. Besides, half-maximal inhibition in the data set on G-401 cells (IC50) required 181 nM. For the same compound, in data set [1] (setting [3]), the Papp at 4 h stood at 16.2 ×10⁻⁶ cm/s. Besides, the Papp at 4 h in data set [1] (setting [4]) stood at 20.6 ×10⁻⁶ cm/s. Moreover, in data set [2] (intravenous, 1 mg/kg), the AUC came to 575 ng·h/mL, the clearance was determined as 28.6 mL/min/kg, the half-life was 1.1 h and the Vd stood at 1.8 L/kg. In data set [2] (oral, 10 mg/kg), the AUC was found to be 4350 ng·h/mL, the Cmax came to 3770 ng/mL and the BA is 75.7%.

For the compound `O=C1N[C@]2(CCc3cc(-c4cnn(C5CN(C6COC6)C5)c4)ccc32)C(=O)N1CC(=O)N(Cc1ccc(F)cc1)C1(C(F)(F)F)CC(F)(F)C1` [Example 5, N-[3,3-difluoro-1-(trifluoromethyl)cyclobutyl]-N-[(4-fluorophenyl)methyl]-2-[(1'S)-5′-{1-[1-(oxetan-3-yl)azetidin-3-yl]-1H-pyrazol-4-yl}-2,5-dioxo-2′,3′-dihydrospiro[imidazolidine-4,1′-inden]-1-yl]acetamide], the IC50 at recombinant p300 turned out to be 6.1 nM. In addition, in the data set on G-401 cells, the IC50 was 88 nM. The Papp at 4 h in data set [1] (setting [3]) was 25.4 ×10⁻⁶ cm/s. Also, the Papp at 4 h in data set [1] (setting [4]) was 28.4 ×10⁻⁶ cm/s. Moreover, in data set [2] (intravenous, 1 mg/kg), the AUC was determined as 875 ng·h/mL, the clearance was 17.6 mL/min/kg, the half-life was 1.75 h and the Vd was found to be 2.1 L/kg. Further, in data set [2] (oral, 10 mg/kg), the AUC stood at 7300 ng·h/mL, the Cmax was 3500 ng/mL and the BA came to 83.4%.

Consider `CN1CC(N(Cc2ccc(C(F)(F)F)cc2)C(=O)CN2C(=O)N[C@]3(C[C@@H](F)c4cc(-c5cnn(C)c5)ccc43)C2=O)(C(F)(F)F)C1` [Example 35, 2-[(1′S,3′R)-3′-fluoro-5′-(1-methyl-1H-pyrazol-4-yl)-2,5-dioxo-2′,3′-dihydrospiro[imidazolidine-4,1′-inden]-1-yl]-N-[1-methyl-3-(trifluoromethyl)azetidin-3-yl]-N-{[4-(trifluoromethyl)phenyl]methyl}acetamide], for which the IC50 on recombinant p300 amounted to 5.2 nM; with G-401 cells, 72 nM. Besides, the Papp at 4 h stood at 31.2 ×10⁻⁶ cm/s in data set [1] (setting [3]) and 33.7 ×10⁻⁶ cm/s in data set [1] (setting [4]).

Take `CN1CC(F)(Cn2cc(-c3ccc4c(c3)CC[C@]43NC(=O)N(CC(=O)N(Cc4ccc(F)cc4)C4(C(F)(F)F)COC4)C3=O)cn2)C1` [Example 2, 2-[(1′S)-5′-{1-[(3-fluoro-1-methylazetidin-3-yl)methyl]-1H-pyrazol-4-yl}-2,5-dioxo-2′,3′-dihydrospiro[imidazolidine-4,1′-inden]-1-yl]-N-[(4-fluorophenyl)methyl]-N-[3-(trifluoromethyl)oxetan-3-yl]acetamide]: the IC50 at recombinant p300 is 19 nM; with G-401 cells it was 89 nM. For the same compound, the Papp at 4 h in data set [1] (setting [3]) is 7.4 ×10⁻⁶ cm/s; in data set [1] (setting [4]) it was 19 ×10⁻⁶ cm/s.

Regarding `CN1CC(N(Cc2ccc(F)cn2)C(=O)CN2C(=O)N[C@]3(CCc4cc(-c5cnn(C)c5)ccc43)C2=O)(C(F)(F)F)C1` [Example 21, N-[(5-fluoropyridin-2-yl)methyl]-2-[(1′S)-5′-(1-methyl-1H-pyrazol-4-yl)-2,5-dioxo-2′,3′-dihydrospiro[imidazolidine-4,1′-inden]-1-yl]-N-[1-methyl-3-(trifluoromethyl)azetidin-3-yl]acetamide], the IC50 at recombinant p300 amounted to 52 nM; in the data set on G-401 cells, 353 nM. Also, the Papp at 4 h was 6.2 ×10⁻⁶ cm/s in data set [1] (setting [3]) and 21.2 ×10⁻⁶ cm/s in data set [1] (setting [4]).

Regarding `O=C1N[C@]2(C[C@@H](F)c3cc(-c4cnn(C5CN(C6COC6)C5)c4)ccc32)C(=O)N1CC(=O)N(Cc1ccc(F)cc1)C1(C(F)(F)F)CC(F)(F)C1` [Example 4, N-[3,3-difluoro-1-(trifluoromethyl)cyclobutyl]-2-[(1′S,3′R)-3′-fluoro-5′-{1-[1-(oxetan-3-yl)azetidin-3-yl]-1H-pyrazol-4-yl}-2,5-dioxo-2′,3′-dihydrospiro[imidazolidine-4,1′-inden]-1-yl]-N-[(4-fluorophenyl)methyl]acetamide], on recombinant p300, the IC50 came to 0.5 nM. Further, the half-inhibitory concentration (IC50) in the data set on G-401 cells was found to be 43 nM. Besides, in data set [1] (setting [3]), the Papp at 4 h stood at 25.7 ×10⁻⁶ cm/s. Besides, the Papp at 4 h in data set [1] (setting [4]) worked out at 31.2 ×10⁻⁶ cm/s. Further, in data set [2] (intravenous, 1 mg/kg), the AUC was 2100 ng·h/mL, the clearance amounted to 6.8 mL/min/kg, the half-life is 2.3 h and the Vd came out at 1.2 L/kg. For the same compound, in data set [2] (oral, 10 mg/kg), the AUC turned out to be 28700 ng·h/mL, the peak level (Cmax) was 8300 ng/mL and the BA was 136.3%.

As to `CN1CC(N(Cc2ccc(F)cc2)C(=O)CN2C(=O)N[C@]3(CCc4cc(-c5cnn(C(C)(C)C#N)c5)ccc43)C2=O)(C(F)(F)F)C1` [Example 13, 2-{(1′S)-5′-[1-(2-cyanopropan-2-yl)-1H-pyrazol-4-yl]-2,5-dioxo-2′,3′-dihydrospiro[imidazolidine-4,1′-inden]-1-yl}-N-[(4-fluorophenyl)methyl]-N-[1-methyl-3-(trifluoromethyl)azetidin-3-yl]acetamide], the results for the IC50 at recombinant p300 and with G-401 cells were 5.2 nM and 20 nM, respectively. Besides, the figures for the Papp at 4 h in data set [1] (setting [3]) and in data set [1] (setting [4]) were 26.2 ×10⁻⁶ cm/s and 26.9 ×10⁻⁶ cm/s, respectively.
